Measured values as given in patent publication US8552035B2, “Phenanthrenone compounds, compositions and methods” (Pfizer Inc., priority 2008, dated 2013).

Key:
IL-1β = assay: LPS-induced human whole blood, IL-1β release; format: cell-based
Method: Venous blood from human donors was collected as 10 ml aliquots in tubes containing sodium heparin (BD Vacutainer from Becton Dickinson and Company, Franklin Lakes, N.Y.). Blood was added to sterile polystyrene round bottom 96-well tissue culture plates (Corning Costar) at 180 Blood was placed in a humidified 37 C incubator with 5% CO2 while compounds were prepared (nearly 60 minutes).
Compounds were prepared from 10 mM stock solutions in dimethylsulfoxide (DMSO, Sigma-Aldrich). Stock compound was diluted in DMSO to give appropriate starting concentration then diluted serially 1/3 in DMSO (i.e. 15 μl compound+30 μl DMSO), followed by diluting each serial dilution 1/167 into vehicle solution (2% DMSO in phosphate buffered saline (Dulbecco's Phosphate Buffered Saline without calcium chloride without magnesium chloride, Invitrogen Corporation, Carlsbad Calif.)). Compound or vehicle was added to blood in 10 μl aliquots as triplicates, omitting the outside wells to minimize possible edge effects. The final highest concentration of each compound in the assay ranged from 3 to 0.3 μM. Final DMSO concentration in the assay was 0.1%. The plate containing the samples was gently vortexed to mix and replaced in the incubator. LPS stock (E. coli serotype 0111:B4, Sigma-Aldrich), stored in aliquots of 100 μg/ml in RPMI at −20° C., was diluted […] in RPMI to make a working stock solution. After 60 minutes of incubation, 10 μl of the prepared LPS working stock was added to the blood to a final concentration of 100 ng/ml. Wells to be used as negative control received RPMI media with no LPS. The plate was again gently vortexed and the plates incubated overnight for 22 hours. Following incubation, the blood was centrifuged at 1500×g for 5 minutes and the plasma removed to either freeze at −20° C. or assay for cytokine release.
IL-1β, IFNγ and TNFα protein levels were measured using Meso Scale assay kits (Meso Scale Discovery, Gaithersburg, Md., U.S.A.). Reagents were allowed to come to room temperature. Meso Scale plates were blocked with 150 μl of Meso Scale Block B diluent, gently shaking at room temperature for 60 minutes. Plates were washed 3× with wash buffer (PBS, Invitrogen Corporation, with 0.05% Tween-20, Sigma-Aldrich). Calibrators for standard curves were prepared in human plasma/serum assay diluent as a 1/5 serial dilution to achieve final concentrations ranging from 50000 pg/ml to 3.2 pg/ml. Samples were added at 10 to 20 μl/well and calibrators were added at 20 μl/well then incubated at room temperature with gentle shaking for 2 hours. Plates were again washed 3× with wash buffer. Detection antibody was diluted in human plasma/serum antibody diluent to 1 μg/ml and added to the plate at 20 μl/well. Plates were incubated as before for 2 hours and washed again. Read Buffer T (4×) was diluted 1:1 with mqH20 to 2× concentration and 150 μl added to each well. Plates were read on the SECTOR Imager 6000 (Meso Scale Discovery) to generate raw signal values.
Individual sample signal values were compared to positive and negative controls (vehicle treated blood with LPS and vehicle treated blood without LPS, respectively) to generate % inhibition. Triplicate values were averaged for each donor. The values for three or four donors were averaged and graphed using 4-parameter fit curves in the LabStats plug-in for the Microsoft Excel application.

[1] = test system: Mouse collagen-induced arthritis; assay: Therapeutic mouse collagen-induced arthritis (mCIA); format: in vivo
Description: Mouse Collagen-induced arthritis is a commonly used chronic, preclinical model of rheumatoid arthritis in which joint swelling and bone destruction occur following immunization with type II collagen. Reduction of disease incidence and severity has been shown previously to be predictive of disease-modification and signs and symptoms mitigation, respectively, in a clinical setting.
In the therapeutic mCIA model, induction of disease incidence and severity was synchronized via LPS stimulation. Male DBA/J mice were immunized with 100 ug of bovine type II collagen (bCII) on day 0. All mice received an intraperitoneal injection of 20 μg of LPS on day 28 and disease was allowed to develop through day 34. At day 34, all mice had disease (incidence=100%) with an average severity score of seven. Dosing of compounds was initiated in the therapeutic mode on day 34 and continued through day 49. Different treatments were compared by measuring the decrease in incidence (i.e., resolution of disease) and the decrease in severity of paw swelling over time.
(§1) ED50 and ED80 values are obtained for the various parameters using four-parameter logistic fits of data. For each experiment/dose group, outliers are detected by calculating the number of standard deviations each mouse's value was from the mean of their group and then dividing by the standard deviation of the group. The means and standard deviations used in this calculation omitted the value being examined so that, if it were an outlier, it would have no influence. If the value being examined is more than 2.5 standard deviations from the mean, it was not used in the rest of the calculations.
(§2) Percent inhibition values are then calculated for each animal using the means of the vehicle and 10 mpk prednisone control groups. The individual mouse percent inhibition values are then fit to a four-parameter logistic model using the area under curve mean for each group. Since all four parameters are estimated and the lower plateau is not fixed at 0% and the upper plateau was not fixed at 100%, the ED50 and ED80 values are calculated by using an inverse calibration formula for a response equal to 50% or 80%. The designation “nd” means not determined.

LPS-induced TNFα = assay: 28-day mouse side-effect model, LPS-induced serum TNFα suppression; format: in vivo; details: oral gavage 28 days, LPS challenge
Method: 10-12 week old female Swiss Webster mice (Taconic, Germantown, N.Y., U.S.A.) weighing 27-29 grams are used in accordance with the guidelines of the Institutional Animal Care and Use Committee and in accordance with NIH guidelines on laboratory animal welfare. Mice are acclimated to the Pfizer animal facility for 3-7 days prior to being placed on study. Prednisolone and DAGR compounds are administered by oral gavage for a total of 28 days. Each treatment group generally contains 8-10 mice. To establish a dosing regimen for the studies, a pilot pharmacodynamic time course experiment is conducted to quantify TNFa repression after a single ED80 dose (determined from the acute LPS endotoxemia mouse model). […] DAGR compounds vary in their required frequency of doses.
Body weights are measured on the first and last day of each experiment. Blood samples are obtained after ˜3 weeks of dosing for steady-state pharmacokinetic analysis. To assess compound effects on LPS-induced TNF-a, all mice receive an intraperitoneal injection of LPS (Salmonella Typhosa, Sigma, St. Louis, L-7895) 2.5 hr after the last dose on day 28. Mice are sacrificed 90 min. after LPS administration. Serum samples are assayed for osteocalcin and TNFa using the Linco multiplex assay (St. Charles, Mo.) and Luminex 100 (Austin, Tex.). Samples are diluted 1:20 and the assay is run according to manufacturer's instructions. An osteocalcin standard is purchased separately from Biomedical Technologies Incorporated (Stoughton, Mass.). Serum insulin is measured to assess compound effects on insulin resistance. Insulin was measured using the UltraSensitive Mouse EIA kit from Alpco Diagnostics (Salem, N.H.) following the manufacturer's protocol.
as §1, §2

Cc1ncccc1NC(=O)c1ccc2c(c1)C(=O)C[C@@H]1C[C@@](O)(c3ccccc3)[C@](C)(O)C[C@@]21Cc1ccccc1 [Example 1, (4bR,6R,7R,8aS)-4b-benzyl-6,7-dihydroxy-6-methyl-N-(2-methylpyridin-3-yl)-10-oxo-7-phenyl-4b,5,6,7,8,8a,9,10-octahydrophenanthrene-2-carboxamide] showed an inhibition at 0.000137174 µM (IL-1β; Homo sapiens, 0.137174 nM, mean of donors) of -0.94%, an inhibition at 0.000411523 µM (IL-1β; Homo sapiens, 0.411523 nM, mean of donors) of -1.08% and an inhibition at 0.00123457 µM (IL-1β; Homo sapiens, 1.234568 nM, mean of donors) of 1.18%. The inhibition at 0.0037037 µM (IL-1β; Homo sapiens, 3.703704 nM, mean of donors) was 5.14%, the inhibition at 0.0111111 µM (IL-1β; Homo sapiens, 11.11111 nM, mean of donors) was 15.4% and the inhibition at 0.0333333 µM (IL-1β; Homo sapiens, 33.33333 nM, mean of donors) was 26.4%. For the same molecule, the inhibition at 0.1 µM (IL-1β; Homo sapiens, 100 nM, mean of donors) was 37.6%, the inhibition at 0.3 µM (IL-1β; Homo sapiens, 300 nM, mean of donors) was 38% and the “level of inhibition of IL-1” value (IL-1β; ex vivo LPS-stimulated human whole blood, extent of inhibition, concentration not given) was 38%. The ED50 ([1]; 816 h, dosing day 34 to 49, read-out: Therapeutic mCIA (ED50 dose)) was 0.3 mg/kg, the “Therapeutic mCIA (ED80 dose)” value ([1]; dosing day 34 to 49) was 1.61 and the ED50 (LPS-induced TNFα; 672 h, read-out: TNFα Suppression (ED50 dose)) was 0.029 mg/kg. For the same molecule, the “TNFα Suppression (ED80 dose)” value (LPS-induced TNFα) was 0.11.
